Assay results as given in PubChem BioAssay (NCI).
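Cultured in 96-well plates, cells were exposed to test compound for 48 hours across five concentrations. TGI: total growth inhibition.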

Tests used:
Test in all cases: growth of human tumour cells (NCI), 48 h
786-0 renal = tested on: 786-0 renal
ACHN renal = tested on: ACHN renal
HCT-116 colon = tested on: HCT-116 colon
MDA-MB-231 breast = tested on: MDA-MB-231 breast
NCI/ADR-RES ovarian = tested on: NCI/ADR-RES ovarian
RPMI-8226 leukemia = tested on: RPMI-8226 leukemia
SF-295 CNS = tested on: SF-295 CNS
SK-MEL-28 melanoma = tested on: SK-MEL-28 melanoma
SK-MEL-5 melanoma = tested on: SK-MEL-5 melanoma
SR leukemia = tested on: SR leukemia
SW-620 colon = tested on: SW-620 colon
T-47D breast = tested on: T-47D breast
U251 CNS = tested on: U251 CNS
MDA-N = tested on: MDA-N
NCI-H226 lung = tested on: NCI-H226 lung
SK-MEL-2 melanoma = tested on: SK-MEL-2 melanoma

## Cc1nc2ccc(F)cc2c2c1CCS2
786-0 renal
  TGI: > 100 µM
ACHN renal
  TGI: > 100 µM
HCT-116 colon
  TGI: > 100 µM
MDA-MB-231 breast
  TGI: 86.9 µM
NCI/ADR-RES ovarian
  TGI: > 100 µM
RPMI-8226 leukemia
  TGI: > 100 µM
SF-295 CNS
  TGI: > 100 µM
SK-MEL-28 melanoma
  TGI: > 100 µM
SK-MEL-5 melanoma
  TGI: > 100 µM
SR leukemia
  TGI: > 100 µM
SW-620 colon
  TGI: > 100 µM
T-47D breast
  TGI: > 100 µM
U251 CNS
  TGI: > 100 µM

## COc1ccc2c(O)c(Oc3ccc(Cl)cc3)c(=O)oc2c1
786-0 renal
  TGI: > 100 µM
ACHN renal
  TGI: > 100 µM
HCT-116 colon
  TGI: > 100 µM
MDA-MB-231 breast
  TGI: > 100 µM
MDA-N
  TGI: > 100 µM
NCI-H226 lung
  TGI: > 100 µM
RPMI-8226 leukemia
  TGI: > 100 µM
SF-295 CNS
  TGI: > 100 µM
SK-MEL-28 melanoma
  TGI: > 100 µM
SK-MEL-5 melanoma
  TGI: > 100 µM
SR leukemia
  TGI: > 100 µM
SW-620 colon
  TGI: > 100 µM
T-47D breast
  TGI: > 100 µM
U251 CNS
  TGI: > 100 µM

## O=C1c2ccccc2C(=O)N1/N=C1/SC(=Nc2ccccc2)C(=Nc2ccccc2)N1c1ccccc1
786-0 renal
  TGI: > 41.7 µM
ACHN renal
  TGI: > 100 µM
HCT-116 colon
  TGI: > 100 µM
NCI-H226 lung
  TGI: > 100 µM
NCI/ADR-RES ovarian
  TGI: > 100 µM
RPMI-8226 leukemia
  TGI: > 79.1 µM
SF-295 CNS
  TGI: > 100 µM
SK-MEL-2 melanoma
  TGI: > 100 µM
SK-MEL-28 melanoma
  TGI: > 69 µM
SK-MEL-5 melanoma
  TGI: > 90.3 µM
SR leukemia
  TGI: > 31.6 µM
SW-620 colon
  TGI: > 100 µM
T-47D breast
  TGI: > 100 µM
U251 CNS
  TGI: > 100 µM

## CC(C)[Si](OC12CCC(CC1O)CC2CO)(C(C)C)C(C)C (stereo not given)
786-0 renal
  TGI: 22.3 µM
ACHN renal
  TGI: 27.2 µM
HCT-116 colon
  TGI: 20.7 µM
MDA-MB-231 breast
  TGI: 45.6 µM
NCI-H226 lung
  TGI: 33.6 µM
NCI/ADR-RES ovarian
  TGI: 28.3 µM
RPMI-8226 leukemia
  TGI: 38.1 µM
SF-295 CNS
  TGI: 24.6 µM
SK-MEL-2 melanoma
  TGI: 29.3 µM
SK-MEL-28 melanoma
  TGI: 40.8 µM
SK-MEL-5 melanoma
  TGI: 47.6 µM
SR leukemia
  TGI: 38.5 µM
SW-620 colon
  TGI: 52.4 µM
T-47D breast
  TGI: 25.7 µM
U251 CNS
  TGI: 28 µM

## C=CC(=O)NCCC(=O)OCn1cc(F)c(=O)[nH]c1=O
786-0 renal
  TGI: > 100 µM
ACHN renal
  TGI: > 100 µM
HCT-116 colon
  TGI: 66.8 µM
MDA-N
  TGI: > 100 µM
NCI-H226 lung
  TGI: > 100 µM
NCI/ADR-RES ovarian
  TGI: > 100 µM
RPMI-8226 leukemia
  TGI: > 100 µM
SF-295 CNS
  TGI: > 100 µM
SK-MEL-2 melanoma
  TGI: > 100 µM
SK-MEL-28 melanoma
  TGI: > 100 µM
SK-MEL-5 melanoma
  TGI: > 100 µM
SR leukemia
  TGI: 52.5 µM
SW-620 colon
  TGI: > 100 µM
T-47D breast
  TGI: > 100 µM
U251 CNS
  TGI: > 100 µM

## CC1(OCc2ccccc2)C(=O)N2C1NCC2(C)C (stereo not given)
786-0 renal
  TGI: > 100 µM
ACHN renal
  TGI: > 100 µM
HCT-116 colon
  TGI: > 100 µM
NCI-H226 lung
  TGI: > 100 µM
RPMI-8226 leukemia
  TGI: > 100 µM
SF-295 CNS
  TGI: > 100 µM
SK-MEL-2 melanoma
  TGI: > 100 µM
SK-MEL-28 melanoma
  TGI: > 100 µM
SK-MEL-5 melanoma
  TGI: > 100 µM
SR leukemia
  TGI: > 100 µM
SW-620 colon
  TGI: > 100 µM
U251 CNS
  TGI: > 100 µM

## O=C(c1ccc2ccccc2c1)C1(I)S(=O)(=O)OCCOS1(=O)=O
786-0 renal
  TGI: > 100 µM
ACHN renal
  TGI: > 100 µM
HCT-116 colon
  TGI: > 100 µM
MDA-MB-231 breast
  TGI: > 100 µM
MDA-N
  TGI: > 100 µM
NCI/ADR-RES ovarian
  TGI: > 100 µM
RPMI-8226 leukemia
  TGI: > 100 µM
SF-295 CNS
  TGI: 0.0298 µM
SK-MEL-2 melanoma
  TGI: > 100 µM
SK-MEL-28 melanoma
  TGI: > 100 µM
SK-MEL-5 melanoma
  TGI: > 100 µM
SR leukemia
  TGI: > 100 µM
U251 CNS
  TGI: > 100 µM

## O=C(O)CN1CCSc2ccccc2CN(CC(=O)O)CCSc2ccccc2C1
786-0 renal
  TGI: > 100 µM
ACHN renal
  TGI: > 100 µM
HCT-116 colon
  TGI: > 100 µM
RPMI-8226 leukemia
  TGI: > 100 µM
SF-295 CNS
  TGI: > 100 µM
SK-MEL-2 melanoma
  TGI: > 100 µM
SK-MEL-28 melanoma
  TGI: > 100 µM
SK-MEL-5 melanoma
  TGI: > 100 µM
SR leukemia
  TGI: 84.5 µM
SW-620 colon
  TGI: > 100 µM
U251 CNS
  TGI: > 100 µM

## N/N=c1/nc2n(c3ncccc13)C=CNN2
786-0 renal
  TGI: > 100 µM
ACHN renal
  TGI: > 100 µM
HCT-116 colon
  TGI: > 100 µM
NCI-H226 lung
  TGI: > 100 µM
RPMI-8226 leukemia
  TGI: > 100 µM
SF-295 CNS
  TGI: > 100 µM
SK-MEL-2 melanoma
  TGI: > 100 µM
SK-MEL-28 melanoma
  TGI: > 100 µM
SK-MEL-5 melanoma
  TGI: > 100 µM
SR leukemia
  TGI: > 100 µM
SW-620 colon
  TGI: > 100 µM
U251 CNS
  TGI: > 100 µM

## CC[C@@H]1/C=C/C=C/C[C@H](C)[C@@H](O)[C@@H](C)C(=O)[C@H](C)[C@@H](O)[C@H](C)C(=O)[C@H](C)[C@@H](O)[C@H](C)/C=C/C(=O)O[C@H]2[C@@H](C)[C@@H](CC1)O[C@@]1(CC[C@@H](C)[C@@H](CC(C)O)O1)[C@@H]2C (stereo not given in full)
786-0 renal
  TGI: > 25 µM
ACHN renal
  TGI: 16.7 µM
HCT-116 colon
  TGI: > 25 µM
MDA-MB-231 breast
  TGI: > 17.4 µM
MDA-N
  TGI: > 17.6 µM
NCI/ADR-RES ovarian
  TGI: > 19.1 µM
RPMI-8226 leukemia
  TGI: 14.7 µM
SK-MEL-2 melanoma
  TGI: 18.1 µM
SK-MEL-28 melanoma
  TGI: > 25 µM
SK-MEL-5 melanoma
  TGI: 3.38 µM
SR leukemia
  TGI: 10.2 µM
SW-620 colon
  TGI: > 25 µM
U251 CNS
  TGI: > 25 µM

## COc1cc([C@@H]2c3cc4c(cc3[C@H](OC3OC5COC(c6ccco6)OC5C(O)C3O)C3COC(=O)[C@@H]32)OCO4)cc(OC)c1OC (stereo not given in full)
786-0 renal
  TGI: > 34.5 µM
ACHN renal
  TGI: > 59.3 µM
HCT-116 colon
  TGI: > 100 µM
MDA-MB-231 breast
  TGI: > 100 µM
NCI-H226 lung
  TGI: > 100 µM
NCI/ADR-RES ovarian
  TGI: > 80.1 µM
RPMI-8226 leukemia
  TGI: > 100 µM
SF-295 CNS
  TGI: > 100 µM
SK-MEL-2 melanoma
  TGI: > 69.8 µM
SK-MEL-5 melanoma
  TGI: > 72.4 µM
SW-620 colon
  TGI: > 100 µM
T-47D breast
  TGI: > 100 µM
U251 CNS
  TGI: > 100 µM

## CC(C)OC(=O)NCCn1cc(-c2ccccc2)nn1
786-0 renal
  TGI: > 100 µM
ACHN renal
  TGI: > 100 µM
HCT-116 colon
  TGI: > 100 µM
MDA-MB-231 breast
  TGI: > 100 µM
NCI-H226 lung
  TGI: > 100 µM
NCI/ADR-RES ovarian
  TGI: > 100 µM
RPMI-8226 leukemia
  TGI: > 100 µM
SF-295 CNS
  TGI: > 100 µM
SK-MEL-2 melanoma
  TGI: > 100 µM
SK-MEL-28 melanoma
  TGI: > 100 µM
SK-MEL-5 melanoma
  TGI: > 100 µM
SR leukemia
  TGI: > 100 µM
U251 CNS
  TGI: > 100 µM

## O=C(O)c1cc(CCc2ccc(O)c(O)c2)ccc1O
786-0 renal
  TGI: > 100 µM
ACHN renal
  TGI: > 100 µM
HCT-116 colon
  TGI: > 100 µM
MDA-N
  TGI: 32.3 µM
NCI-H226 lung
  TGI: > 100 µM
NCI/ADR-RES ovarian
  TGI: > 100 µM
SF-295 CNS
  TGI: > 100 µM
SK-MEL-2 melanoma
  TGI: > 100 µM
SK-MEL-5 melanoma
  TGI: > 100 µM
SR leukemia
  TGI: 61.7 µM
SW-620 colon
  TGI: > 100 µM
T-47D breast
  TGI: > 100 µM
U251 CNS
  TGI: > 100 µM

## O=C(CNc1ccccc1[N+](=O)[O-])Nn1cnc2ccc(S(=O)(=O)Nc3ccccc3[N+](=O)[O-])cc2c1=O
786-0 renal
  TGI: > 100 µM
ACHN renal
  TGI: > 100 µM
HCT-116 colon
  TGI: > 100 µM
MDA-MB-231 breast
  TGI: > 100 µM
MDA-N
  TGI: > 100 µM
NCI-H226 lung
  TGI: > 100 µM
NCI/ADR-RES ovarian
  TGI: > 100 µM
RPMI-8226 leukemia
  TGI: > 100 µM
SF-295 CNS
  TGI: > 100 µM
SK-MEL-2 melanoma
  TGI: > 100 µM
SK-MEL-28 melanoma
  TGI: > 100 µM
SR leukemia
  TGI: > 100 µM
SW-620 colon
  TGI: > 100 µM
U251 CNS
  TGI: > 100 µM

## O=C(CC(NC(=O)OCc1ccccc1)C(=O)NC1Cc2ccccc2C1=O)OCc1ccccc1 (stereo not given)
786-0 renal
  TGI: > 100 µM
ACHN renal
  TGI: > 100 µM
MDA-N
  TGI: > 100 µM
NCI-H226 lung
  TGI: > 100 µM
NCI/ADR-RES ovarian
  TGI: > 100 µM
RPMI-8226 leukemia
  TGI: > 100 µM
SF-295 CNS
  TGI: > 100 µM
SK-MEL-2 melanoma
  TGI: > 100 µM
SK-MEL-28 melanoma
  TGI: > 100 µM
SK-MEL-5 melanoma
  TGI: > 100 µM
SR leukemia
  TGI: > 100 µM
SW-620 colon
  TGI: > 100 µM
U251 CNS
  TGI: > 100 µM

## O=C1C(Cl)C(c2cccc([N+](=O)[O-])c2)N1n1cnc2ccccc2c1=O (stereo not given)
786-0 renal
  TGI: > 100 µM
ACHN renal
  TGI: > 100 µM
HCT-116 colon
  TGI: > 100 µM
NCI-H226 lung
  TGI: > 100 µM
RPMI-8226 leukemia
  TGI: > 100 µM
SF-295 CNS
  TGI: > 100 µM
SK-MEL-2 melanoma
  TGI: > 100 µM
SK-MEL-28 melanoma
  TGI: > 100 µM
SK-MEL-5 melanoma
  TGI: > 100 µM
SR leukemia
  TGI: > 100 µM
SW-620 colon
  TGI: > 100 µM
U251 CNS
  TGI: > 100 µM
